According to PubChem BioAssay AID206 (DTP/NCI, 2004):
Where “and” joins values, the source holds several entries; their conditions need not be identical. Identical values can stand only once. Inconclusive results are not listed.

Test system: nude mice, HT29 intrarenal xenograft, tumor weight T/C
Experiment: NCI In Vivo Anticancer Drug Screen. Data for tumor model HT29;CX-1 Human Adenocarcinoma (MER+) (intrarenal inoculation) in NU/NU Swiss (nude) mice
Settings: endpoint: mean tumor weight change, higher = larger tumour
Procedure, shortened: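 Mice with transplanted tumors are dosed with compound while controls get vehicle only. Survival or tumor burden is then assessed per group, and the treated value is expressed relative to control.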

[1] = dose: 200.0 mg/kg/injection, schedule: Q04DX004 (sc), vehicle: Klucel (hydroxypropylcellulose) (HPC)
[2] = dose: 400.0 mg/kg/injection, schedule: Q04DX004 (sc), vehicle: Klucel (hydroxypropylcellulose) (HPC)
[3] = dose: 50.0 mg/kg/injection, schedule: Q01DX010 (sc), vehicle: water
[4] = dose: 150.0 mg/kg/injection, schedule: Q04DX004 (sc), vehicle: saline with Tween-80
[5] = dose: 200.0 mg/kg/injection, schedule: Q01DX010 (sc), vehicle: saline with Tween-80
[6] = dose: 200.0 mg/kg/injection, schedule: Q01DX010 (sc), vehicle: saline
[7] = dose: 50.0 mg/kg/injection, schedule: Q04DX004 (sc), vehicle: saline with Tween-80
[8] = dose: 100.0 mg/kg/injection, schedule: Q04DX004 (sc), vehicle: saline with Tween-80
[9] = dose: 300.0 mg/kg/injection, schedule: Q04DX004 (sc), vehicle: saline with Tween-80
[10] = dose: 600.0 mg/kg/injection, schedule: Q04DX004 (sc), vehicle: saline with Tween-80
[11] = dose: 1200.0 mg/kg/injection, schedule: Q04DX004 (sc), vehicle: saline with Tween-80

`CCCCc1ccc(-n2c(C)c(COC(=O)NC)c(COC(=O)NC)c2C)cc1` was tested, and the T/C (dose: 50.0 mg/kg/injection, schedule: Q01DX010 (sc), vehicle: Klucel (hydroxypropylcellulose) (HPC)) was 218 % of control, the T/C (dose: 50.0 mg/kg/injection, schedule: Q04DX004 (sc), vehicle: Klucel (hydroxypropylcellulose) (HPC)) was 53 % of control and the T/C (dose: 100.0 mg/kg/injection, schedule: Q01DX010 (sc), vehicle: Klucel (hydroxypropylcellulose) (HPC)) was 89 % of control. The T/C (dose: 100.0 mg/kg/injection, schedule: Q04DX004 (sc), vehicle: Klucel (hydroxypropylcellulose) (HPC)) was 53 % of control, the T/C [1] was 73 % of control and the T/C [2] was 49 % of control.
`Cc1ccc(NCC2(/N=C/c3ccccc3)OC(CO)C(O)C2O)cc1` (stereo unspecified) was tested, and the T/C [1] was 81 % of control, the T/C [2] was 70 % of control and the T/C (dose: 800.0 mg/kg/injection, schedule: Q04DX004 (sc), vehicle: Klucel (hydroxypropylcellulose) (HPC)) was 92 % of control. For the same compound, the T/C (dose: 1600.0 mg/kg/injection, schedule: Q04DX004 (sc), vehicle: Klucel (hydroxypropylcellulose) (HPC)) was 94 % of control.
In the case of `O=c1[nH]c(=O)n(C2CC(O)C(CO)O2)cc1F` (stereo unspecified), the T/C (dose: 25.0 mg/kg/injection, schedule: Q01DX010 (sc), vehicle: water) is reported as 65 % of control and the T/C [3] is reported as 75 % of control.
With `N=c1ccn2c(n1)OC1C(O)C(CO)OC12` (stereo unspecified) the T/C (dose: 300.0 mg/kg/injection, schedule: Q04DX004 (sc), vehicle: saline) was 50 % of control, the T/C (dose: 300.0 mg/kg/injection, schedule: Q04DX004 (sc), vehicle: suspension in saline) was 105 % of control and the T/C (dose: 400.0 mg/kg/injection, schedule: Q04DX004 (sc), vehicle: saline) was 98 % of control. The T/C (dose: 600.0 mg/kg/injection, schedule: Q04DX004 (sc), vehicle: saline) was 60 % of control, the T/C (dose: 600.0 mg/kg/injection, schedule: Q04DX004 (sc), vehicle: suspension in saline) was 66 % of control and the T/C (dose: 800.0 mg/kg/injection, schedule: Q04DX004 (sc), vehicle: saline) was 31 % of control. The T/C (dose: 1200.0 mg/kg/injection, schedule: Q04DX004 (sc), vehicle: saline) was 42 % of control, the T/C (dose: 1200.0 mg/kg/injection, schedule: Q04DX004 (sc), vehicle: suspension in saline) was 38 % of control and the T/C (dose: 1600.0 mg/kg/injection, schedule: Q04DX004 (sc), vehicle: saline) was 36 % of control. For the same compound, the T/C (dose: 2400.0 mg/kg/injection, schedule: Q04DX004 (sc), vehicle: suspension in saline) was 42 % of control.
In the case of `CCOC(=O)Nc1cc2c(c(N)n1)N=C(c1ccccc1)CN2`, the T/C (dose: 12.5 mg/kg/injection, schedule: Q04DX004 (sc), vehicle: saline with Tween-80) is reported as 90 % of control and the T/C (dose: 25.0 mg/kg/injection, schedule: Q04DX004 (sc), vehicle: saline with Tween-80) is reported as 104 % of control.
In the case of `NC(=O)c1[nH]nc(C2OC(CO)C(O)C2O)c1O` (stereo unspecified), the T/C (dose: 10.0 mg/kg/injection, schedule: Q04DX004 (sc), vehicle: saline) is reported as 73 % of control.
For `OC1CCCC2CCCNC12` (stereo unspecified), the T/C (dose: 37.5 mg/kg/injection, schedule: Q04DX004 (sc), vehicle: saline with Tween-80) was 85 % of control, the T/C (dose: 75.0 mg/kg/injection, schedule: Q04DX004 (sc), vehicle: saline with Tween-80) was 77 % of control and the T/C [4] was 83 % of control.
In the case of `O=C(N/N=C\c1cc(Br)cc(Br)c1O)N/N=C/c1cc(Br)cc(Br)c1O`, the T/C [5] is reported as 71 % of control and 94 % of control, the T/C (dose: 400.0 mg/kg/injection, schedule: Q01DX010 (sc), vehicle: saline with Tween-80) is reported as 43 % of control and 56 % of control and the T/C (dose: 800.0 mg/kg/injection, schedule: Q01DX010 (sc), vehicle: saline with Tween-80) is reported as 76 % of control.
For `CCCCCC[C@H]([C@H](C)O)n1cnc2c(N)ncnc21`, the T/C (dose: 50.0 mg/kg/injection, schedule: Q01DX010 (sc), vehicle: saline) was 26 % of control, the T/C (dose: 100.0 mg/kg/injection, schedule: Q01DX010 (sc), vehicle: saline) was 61 % of control and the T/C [6] was 56 % of control.
`Cc1cc2cc3cc(C)c(N)cc3nc2cc1N` was tested, and the T/C [7] was 86 % of control, the T/C [8] was 90 % of control and the T/C (dose: 200.0 mg/kg/injection, schedule: Q04DX004 (sc), vehicle: saline with Tween-80) was 82 % of control. For the same compound, the T/C [9] was 89 % of control, the T/C (dose: 400.0 mg/kg/injection, schedule: Q04DX004 (sc), vehicle: saline with Tween-80) was 66 % of control and the T/C [10] was 21 % of control. The T/C [11] was 37 % of control and the T/C (dose: 2400.0 mg/kg/injection, schedule: Q04DX004 (sc), vehicle: saline with Tween-80) was 45 % of control.
With `CCC1CC2CN(CCc3c([nH]c4ccccc34)C(C(=O)OC)(c3cc4c(cc3OC)N(C)C3C(O)(C(=O)OC)C(OC(C)=O)C5(CC)C=CCN6CCC43C65)C2)C1` (stereo unspecified) the T/C (dose: 1.0 mg/kg/injection, schedule: Q04DX004 (sc), vehicle: saline) was 209 % of control, the T/C (dose: 2.0 mg/kg/injection, schedule: Q04DX004 (sc), vehicle: saline) was 164 % of control and the T/C (dose: 4.0 mg/kg/injection, schedule: Q04DX004 (sc), vehicle: saline) was 58 % of control. The T/C (dose: 8.0 mg/kg/injection, schedule: Q04DX004 (sc), vehicle: saline) was 68 % of control.
With `COC1CC(C)C(OC)c2cc(O)cc(c2O)NC(=O)/C(C)=C/C=C\C(C)C(OC(N)=O)/C(C)=C\C(C)C1OC` (stereo unspecified) the T/C (dose: 50.0 mg/kg/injection, schedule: Q04DX004 (sc), vehicle: saline + alcohol) was 113 % of control.
In the case of `CC1(C)N=C(N)N=C(N)N1c1ccc(F)c(C(F)(F)F)c1`, the T/C (dose: 3.12 mg/kg/injection, schedule: Q01DX010 (sc), vehicle: saline) is reported as 103 % of control, the T/C (dose: 6.25 mg/kg/injection, schedule: Q01DX010 (sc), vehicle: saline) is reported as 84 % of control and the T/C (dose: 12.5 mg/kg/injection, schedule: Q01DX010 (sc), vehicle: saline) is reported as 49 % of control. For the same compound, the T/C (dose: 25.0 mg/kg/injection, schedule: Q01DX010 (sc), vehicle: saline) was 124 % of control.
For `CC(=O)O[C@@H]1[C@@H](O)C2=C3[C@]4(C)[C@@H]1C(C)(C)C(=O)C[C@@H]4[C@]3(O)[C@H](OC(C)=O)[C@@]1(C[C@@H]1C)C2=O`, the T/C (dose: 12.5 mg/kg/injection, schedule: Q01DX010 (sc), vehicle: saline with Tween-80) was 77 % of control, the T/C (dose: 25.0 mg/kg/injection, schedule: Q01DX010 (sc), vehicle: saline with Tween-80) was 122 % of control and the T/C (dose: 50.0 mg/kg/injection, schedule: Q01DX010 (sc), vehicle: saline with Tween-80) was 26 % of control. For the same compound, the T/C (dose: 100.0 mg/kg/injection, schedule: Q01DX010 (sc), vehicle: saline with Tween-80) was 68 % of control.
In the case of `CC(=O)NCCCCCCNC(C)=O`, the T/C [6] is reported as 88 % of control, the T/C (dose: 800.0 mg/kg/injection, schedule: Q01DX010 (sc), vehicle: saline) is reported as 95 % of control and the T/C (dose: 1600.0 mg/kg/injection, schedule: Q01DX010 (sc), vehicle: saline) is reported as 97 % of control and 117 % of control. For the same compound, the T/C (dose: 3200.0 mg/kg/injection, schedule: Q01DX010 (sc), vehicle: saline) was 110 % of control.
For `O=S(=O)(CCl)OCCCl`, the T/C [7] was 163 % of control and the T/C [8] was 105 % of control.
In the case of `CN=C(N)N/N=C(\C)c1ccc2c(c1)Cc1ccccc1-2`, the T/C [4] is reported as 116 % of control, the T/C [9] is reported as 91 % of control and the T/C [10] is reported as 46 % of control. The T/C [11] was 81 % of control.
`C[C@@](O)(/C=C/[C@H]1CC=CC(=O)O1)[C@@H](C[C@@H](O)\C=C/C=C\C=C\CO)OP(=O)(O)O` was tested, and the T/C (dose: 9.38 mg/kg/injection, schedule: Q04DX004 (sc), vehicle: saline) was 76 % of control, the T/C (dose: 18.75 mg/kg/injection, schedule: Q04DX004 (sc), vehicle: saline) was 102 % of control and the T/C (dose: 37.5 mg/kg/injection, schedule: Q04DX004 (sc), vehicle: saline) was 72 % of control.
`O=c1[nH]c(=O)n(C2CC(O)C(CO)O2)cc1I` (stereo unspecified) was tested, and the T/C [5] was 91 % of control.
`O=S(=O)(c1ccccc1)N1CN2CCN(C2)C1` was tested, and the T/C (dose: 225.0 mg/kg/injection, schedule: Q04DX004 (sc), vehicle: saline with Tween-80) was 58 % of control, the T/C (dose: 450.0 mg/kg/injection, schedule: Q04DX004 (sc), vehicle: saline with Tween-80) was 75 % of control and the T/C (dose: 900.0 mg/kg/injection, schedule: Q04DX004 (sc), vehicle: saline with Tween-80) was 90 % of control.
For `Cn1cnc([N+](=O)[O-])c1[Se]c1nc(N)nc2nc[nH]c12`, the T/C [3] was 100 % of control.
In the case of `C=C(OP(=O)(OC)OC)Sc1ccccc1C`, the T/C (dose: 100.0 micrograms/kg/injection, schedule: Q04DX004 (sc), vehicle: Klucel (hydroxypropylcellulose) (HPC)) is reported as 84 % of control, the T/C (dose: 400.0 micrograms/kg/injection, schedule: Q04DX004 (sc), vehicle: Klucel (hydroxypropylcellulose) (HPC)) is reported as 95 % of control and the T/C (dose: 800.0 micrograms/kg/injection, schedule: Q04DX004 (sc), vehicle: Klucel (hydroxypropylcellulose) (HPC)) is reported as 118 % of control.
